The structures appear in SMILES notation. Some results are limits rather than exact numbers.

Here are results for 70 compounds from US8158621B2, “Methods of treating or preventing autoimmune diseases with 2,4-pyrimidinediamine compounds” (Rigel Pharmaceuticals, Inc., priority 2002, dated 2012).

The subject of the first assay is Human Jurkat T-cells (clone N). The assay is described as follows: Jurkat T-cell activation (anti-TCR, CD69 upregulation). It is filed as cell-based.
Conditions: not given
In short, it runs like this: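 Readout is CD69 upregulation by flow cytometry (anti-CD69-APC, 20 min at 4 °C) after 20 h anti-TCR (C305, 500 ng/ml) stimulation at 37 °C.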
Regarding `O=C(O)COc1ccc(Nc2ncc(F)c(Nc3cccc(O)c3)n2)cc1` [Compound R926564], the IC50 (commonly the concentration needed to halve the response being measured) was above 10 µM.
The same measure, in the same setting: for `Cn1nnc(COc2ccc(Nc3nccc(Nc4cccc(O)c4)n3)cc2)n1` [Compound R920910] the value was 2.38 µM.
Same read-out and setting: the result for `CNC(=O)c1cc2cccc(Nc3ncc(F)c(Nc4ccc5c(c4)OCCO5)n3)c2[nH]1` [Compound R926815] reads above 10 µM.
`CCOC(=O)COc1cccc(Nc2ncc(C(=O)OCC)c(Nc3ccc4c(c3)OC(F)(F)C(F)(F)O4)n2)c1` [Compound R926799] returned an IC50 above 10 µM.
The compound `COc1cc(C(=O)NS(=O)(=O)c2ccccc2C)ccc1Cn1ncc2ccc(Nc3ncc(F)c(Nc4ccc(OC(C)C)cc4)n3)cc21` [Compound R935322] yielded an IC50 above 10 µM.
As for `Cc1noc(COc2ccc(Nc3nc(Nc4cccc(O)c4)ncc3F)cc2)n1` [Compound R935147], the IC50 was determined as 1.98 µM.
Consider `CCOC(=O)C(C)(C)c1ccc(Nc2ncc(F)c(Nc3ccc(OC(C)C)cc3)n2)cc1` [Compound R935150], for which the IC50 is 20.4 µM.
Consider `O=C(COc1cccc(Nc2ncc(F)c(Nc3ccc4c(c3)OCCO4)n2)c1)NCC(O)CO` (stereo not shown) [Compound R926782], for which half-maximal inhibition (IC50) required 1.22 µM.
With `Nc1cccc(Nc2nc(Nc3cccc(NC(=O)CCC(C(=O)O)N4C(=O)c5ccccc5C4=O)c3)ncc2F)c1` (racemic) [Compound R950251], the IC50 is above 10 µM.
On the same count and under the same terms, the result for `O=C(CNc1cccc(Nc2ncc(F)c(Nc3cccc(O)c3)n2)c1)N1CCNCC1` [Compound R950222] reads 2.01 µM; that for `O=C(O)COc1cccc(Nc2ncc(F)c(Nc3ccc4c(c3)OCCO4)n2)c1` [Compound R926483], above 10 µM.
`CCOC(=O)c1cnc(N[C@@H](Cc2ccccc2)C(=O)OCC)nc1N[C@@H](Cc1ccccc1)C(=O)OCC` [Compound R926526] displayed an IC50 above 10 µM.
`CNCc1cccc(Nc2nc(Nc3cccc(OCC(=O)NC)c3)ncc2F)c1` [Compound R940317] had an IC50 of 3.28 µM.
Turning to `CN1CCN(C(=O)CNc2cccc(Nc3ncc(F)c(Nc4cccc(NCCO)c4)n3)c2)CC1` [Compound R950240], the midpoint of inhibition, the IC50, lay at 8.93 µM.
In turn, `CNC(=O)COc1cccc(Nc2ncc(F)c(Nc3cc(OC)cc(OC)c3)n2)c1` [Compound R926796] came in with an IC50 of 4.21 µM.
`Cc1noc(COc2cccc(Nc3nc(Nc4cccc(O)c4)ncc3F)c2)n1` [Compound R945130] returned an IC50 above 10 µM.
Consider `COC(=O)c1cc(Nc2ncc(F)c(Nc3ccc(OC(C)C)cc3)n2)cn1C` [Compound R935164], for which the half-maximal inhibitory concentration (IC50) was 3.32 µM.
Same read-out and setting: for `O=C1COc2cc(Nc3nc(Nc4cccc(O)c4)ncc3F)ccc2N1` [Compound R908698] the value was 3.75 µM; for `CNC(=O)COc1cccc(Nc2ncc(F)c(Nc3cccc(B(O)O)c3)n2)c1` [Compound R926754], 13.2 µM; for `O=C(COc1cccc(Nc2ncc(F)c(Nc3cc(Cl)c(O)c(Cl)c3)n2)c1)N1CCOCC1` [Compound R950187], 22.3 µM.
The compound `COC(=O)Cn1ncc2ccc(Nc3nc(Nc4cccc(O)c4)ncc3F)cc21` [Compound R935220] displayed an IC50 of 8.07 µM.
The compound `COc1cc(Nc2ncc(F)c(Nc3ccc4c(cnn4C)c3)n2)cc(OC)c1` [Compound R935214] came in with an IC50 of 1.38 µM.
Consider `CCOC(=O)c1cnc(Nc2ccc3cn[nH]c3c2)nc1Nc1ccc2cn[nH]c2c1` [Compound R926320], for which the IC50 is above 10 µM.
In the case of `O=C(COc1cccc(Nc2ncc(F)c(Nc3cccc(O)c3)n2)c1)N1CCNCC1` [Compound R926773], half-maximal inhibition (IC50) was put at 1.84 µM.
`Cn1nnc(COc2ccc(Nc3ncc(F)c(Nc4ccc(OCc5nnn(C)n5)cc4)n3)cc2)n1` [Compound R945046] registered an IC50 of 4.08 µM.
`COC(=O)COc1ccc(Nc2cc(Cl)nc(Nc3ccc(OCC(=O)OC)cc3)n2)cc1` [Compound R926411] registered an IC50 of 16.9 µM.
On to `CNC(=O)COc1cccc(Nc2ncc(F)c(Nc3cccc(C(C)C)c3)n2)c1` [Compound R940288], for which half-maximal inhibition (IC50) required 3.48 µM. This IC50 is about 4.9-fold lower than that of the compound before.
`CCOC(=O)COc1ccc(Nc2ncc(Br)c(Nc3ccc(OCC(=O)OCC)cc3)n2)cc1` [Compound R925779]: the IC50 is above 10 µM.
Turning to `CNC(=O)COc1ccc(Nc2ncc(F)c(Nc3ccc4c(cnn4C)c3)n2)cc1` [Compound R935216], it took 3.48 µM to reach half-maximal inhibition (IC50). This counts as single-digit micromolar.
`O=C(CNc1cccc(Nc2ncc(F)c(Nc3cccc(NCCO)c3)n2)c1)NCCNCc1ccccc1` [Compound R950235] showed an IC50 of 6.26 µM.
On to `CC(C)Oc1ccc(Nc2nc(Nc3ccc4c(cnn4CCCO)c3)ncc2F)cc1` [Compound R935307], for which it took 1.41 µM to reach half-maximal inhibition (IC50).
In turn, `CCNC(=O)Oc1cccc(Nc2nc(Nc3cccc(OCC(=O)NC)c3)ncc2F)c1` [Compound R926919] came in with an IC50 above 10 µM.
`CN1CCN(C(=O)CNc2cccc(Nc3ncc(F)c(Nc4cccc(O)c4)n3)c2)CC1` [Compound R950223] gave an IC50 of 2.77 µM. In other words, the single-digit micromolar range.
Compound `CNC(=O)CCn1ncc2ccc(Nc3ncc(F)c(Nc4ccc(OC(C)C)cc4)n3)cc21` [Compound R935291] gave an IC50 of 3.14 µM.
On to `Cc1cc(Nc2ncc(F)c(Nc3ccc(O)c(C)c3)n2)ccc1O` [Compound R926469], for which the IC50 is above 10 µM.
`Cc1ccc(-c2ccccc2)cc1Nc1ncc(C)c(Nc2cc(-c3ccccc3)ccc2C)n1` [Compound R935001] came in with a concentration for half-maximal inhibition (IC50) above 10 µM.
Still for that read-out and setting: for `CC(C)Oc1cccc(Nc2nc(Nc3ccc4oc(C(=O)N5CCOCC5)cc4c3)ncc2F)c1` [Compound R926489] the value was above 10 µM.
Still for that read-out and setting: for `COC(=O)COc1cccc(Nc2ncc(F)c(Nc3ccc(OC(C)C)cc3)n2)c1` [Compound R945125] the value was above 10 µM; for `CC(=O)Nc1cccc(N(C(C)=O)c2nc(N(C(C)=O)c3cccc(N(C(C)=O)C(C)=O)c3)ncc2F)c1` [Compound R950246], above 10 µM.
For `CCOC(=O)COc1cccc(Nc2ncc(F)c(Nc3ccc4c(c3)OCCO4)n2)c1` [Compound R926482], 8.26 µM corresponded to half-maximal inhibition (IC50).
`CNC(=O)COc1cccc(Nc2ncc(F)c(Nc3cc(C(=O)OC)cc(C(F)(F)F)c3)n2)c1` [Compound R926862] gave an IC50 of 7.75 µM.
In turn, `COC(=O)Cn1ncc2cc(Nc3ncc(F)c(Nc4ccc5c(cnn5CC(=O)OC)c4)n3)ccc21` [Compound R935211] came in with an IC50 of 7.06 µM.
For `CC(C)(C)c1cccc(Nc2nc(Nc3cccc(OCC(=O)O)c3)ncc2F)c1` [Compound R940280], the IC50 is above 10 µM.
In the case of `CC(C)c1cccc(Nc2nc(Nc3ccc4oc(CO)cc4c3)ncc2F)c1` [Compound R940286], the IC50 came out at 4.4 µM.
`CNC(=O)COc1cccc(Nc2nc(Nc3ccc4c(c3)NCCO4)ncc2F)c1` [Compound R909247] showed an IC50 of 3 µM.

Still in this assay, the particulars now being: Homo sapiens, Jurkat.
`OCCOc1cccc(Nc2nc(Nc3cccc(O)c3)ncc2F)c1` [Compound R935170]: the midpoint of inhibition, the IC50, lay at 6.03 µM.
`OC(CNc1ncc(F)c(NCC(O)c2ccccc2)n1)c1ccccc1` (stereo not shown) [Compound R925768] had an IC50 above 10 µM.
The same measure, in the same setting: the result for `COc1ccc(Nc2ncc(F)c(Nc3ccc(OC)c(O)c3)n2)cc1O` [Compound R926339] reads 2.15 µM; that for `Oc1cccc(Nc2nc(NCc3ccccn3)ncc2F)c1` [Compound R945166], above 10 µM; that for `CC(C)Nc1cccc(Nc2ncc(F)c(Nc3cccc(NC(C)C)c3)n2)c1` [Compound R950166], above 10 µM.
As for `CC(C)(C)c1ccc(Nc2nc(Nc3ccc4oc(C(=O)O)cc4c3)ncc2F)cc1` [Compound R926481], the IC50 is above 10 µM.
On to `CC(C)(C)OC(=O)Nc1ccc(Nc2ncc(F)c(Nc3ccc(NC(=O)OC(C)(C)C)cc3)n2)cc1` [Compound R950120], for which the IC50 was 12.1 µM.
Consider `CCOC(=O)c1cc2cc(Nc3ncc(F)c(Nc4ccc5[nH]c(C(=O)OCC)cc5c4)n3)ccc2[nH]1` [Compound R926616], for which the IC50 worked out at 1.91 µM.
In turn, `Fc1cccc(Nc2ncc(F)c(Nc3ccc4c(c3)OCCO4)n2)c1` [Compound R926221] returned an IC50 above 10 µM.
On to `COC(=O)c1cc(Nc2nc(Nc3cccc(O)c3)ncc2Br)cn1C` [Compound R935025], for which the IC50 came out at 7.95 µM.
Take `COc1cccc(Nc2ncc(F)c(Nc3cccc(OC)c3)n2)c1` [Compound R926065]: the midpoint of inhibition, the IC50, lay at 6.73 µM. This IC50 and that of the compound before are within 1.5-fold of each other.
Turning to `Clc1cc(Nc2ccc3c(c2)OCCO3)nc(Nc2ccc3c(c2)OCCO3)n1` [Compound R926245], the IC50 came out at 11.1 µM.
As for `Fc1cnc(Nc2ccc3[nH]ccc3c2)nc1Nc1ccc2c(c1)OCCO2` [Compound R926748], the IC50 was determined as 2.77 µM.
As to `COc1ccc(C)c(Nc2ncc(F)c(Nc3ccc4c(c3)OCCO4)n2)c1` [Compound R926896], the IC50 is above 10 µM.
For `Nc1cccc(Nc2ccnc(Nc3cccc(N)c3)n2)c1` [Compound R950109], the half-maximal inhibitory concentration (IC50) was 12.8 µM. In other words, the double-digit micromolar range.
Compound `Brc1cnc(Nc2cccc(-c3ccccc3)c2)nc1Nc1cccc(-c2ccccc2)c1` [Compound R925803] gave an IC50 above 10 µM.
Regarding `COC(=O)c1cccc(Nc2ncc(F)c(Nc3cccc(C(=O)OC)c3)n2)c1` [Compound R945035], the IC50 is above 10 µM.
Regarding `CCOC(=O)C1CCN(C(=O)c2cccc(Nc3ncc(F)c(Nc4ccc5cc[nH]c5c4)n3)c2)CC1` [Compound R926935], half-maximal inhibition (IC50) required 11.8 µM.
`CC(C)Oc1cccc(Nc2ncc(F)c(Nc3cccc(N)c3)n2)c1` [Compound R950164] registered an IC50 of 18.2 µM.
As for `c1ccc(-c2cnc(Nc3ccc4c(c3)OCCO4)nc2Nc2ccc3c(c2)OCCO3)cc1` [Compound R925784], the IC50 is above 10 µM.
`CCOC(=O)c1nc(Nc2cccc(O)c2)nc(Nc2cccc(O)c2)c1N` [Compound R925856] displayed an IC50 above 10 µM.
As to `c1cc(Nc2ccc3c(c2)OCCO3)nc(Nc2ccc3c(c2)OCCO3)n1` [Compound R926243], inhibition was half-maximal at 2.99 µM (IC50). This lies in the single-digit micromolar range.
For `Fc1cnc(Nc2ccc(N3CCN(Cc4ccccc4)CC3)cc2)nc1Nc1ccc(N2CCN(Cc3ccccc3)CC2)cc1` [Compound R945152], the IC50 is above 10 µM.
Same read-out and setting: the result for `Oc1ccc(Nc2ncc(F)c(Nc3ccc(O)c(C(F)(F)F)c3)n2)cc1C(F)(F)F` [Compound R950093] reads 11.3 µM; that for `CCCCCCOc1ccc(Nc2ncc(F)c(Nc3ccc4c(c3)OCCO4)n2)cc1` [Compound R920664], above 10 µM.
